This note sets out measurements from patent US10064848B2, “Pyridic ketone derivatives, method of preparing same, and pharmaceutical application thereof” (Shanghai Hengrui Pharmaceutical Co., Ltd., priority 2013, dated 2018).

A value given as a limit tells only on which side of the number the result lay.

One data set deals with T1, CYP1A2 (Homo sapiens, UniProt P05177).
T1 construct: from tissue; host or cells: human liver microsomes
T1 sequence (P05177 1-516): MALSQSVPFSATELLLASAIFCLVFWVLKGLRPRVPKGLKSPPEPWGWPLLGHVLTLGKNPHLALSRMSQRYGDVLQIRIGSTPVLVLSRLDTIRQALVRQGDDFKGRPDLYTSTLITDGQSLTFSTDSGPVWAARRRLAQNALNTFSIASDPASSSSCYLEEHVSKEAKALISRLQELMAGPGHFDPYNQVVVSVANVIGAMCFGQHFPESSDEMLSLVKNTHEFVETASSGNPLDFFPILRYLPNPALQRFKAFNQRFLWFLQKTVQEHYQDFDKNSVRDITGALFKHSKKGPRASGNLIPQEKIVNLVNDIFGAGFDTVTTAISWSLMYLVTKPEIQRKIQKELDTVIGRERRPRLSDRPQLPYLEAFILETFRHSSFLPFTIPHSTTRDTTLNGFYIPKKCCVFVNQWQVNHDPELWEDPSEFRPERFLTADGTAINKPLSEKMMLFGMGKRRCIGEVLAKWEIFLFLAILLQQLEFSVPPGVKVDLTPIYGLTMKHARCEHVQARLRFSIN
As to the kind of experiment: In vitro CYP enzyme inhibition, human liver microsomes. It is filed as in vitro ADME. The conditions noted are these: probe Phenacetin, single point method. Here is the method: (§1) Human liver microsome incubation system was used to reflect the activity of enzymes based on the amount of metabolites produced. Enzyme inhibition of the test compounds was investigated on CYP1A2, CYP2C9, […], CYP3A4m, CYP3A4t and CYP2C19, and IC50 values (a concentration of the test compound that is required for 50% inhibition of enzyme activity) were measured. […] The appropriate amount of test compound standard sample was weighed, and diluted with DMSO to 50 mM to obtain stock solution I. The stock solution I was diluted with PBS to 100 μM to obtain the reaction liquid which is to be used in incubation. [table] The reaction mixture was prepared: 60 μL [table] The above mixture was preincubated for 5 minutes at 37° C., followed by addition of 40 μL of NADPH (2.5 mM, PBS formulation). The mixture solution was incubated for 20 minutes at 37° C. All incubated samples were set to double samples. 300 μL ice-cold acetonitrile was added to terminate the reaction. The reaction solution was added with 100 μl internal standard, mixed uniformly, and centrifuged for 10 minutes at 3500 rpm. The supernatant was transferred to the LC-MS/MS analysis. The activity of enzymes was reflected by the production amount of metabolites. Using a single point method, the formula was calculated as follows: According to the known literature: IC50>10 μM belongs to weaker inhibition, 1 μM<IC50<10 μM belong to moderate inhibition, IC50<1 μM belong to strong inhibition.

In the next data set the target is CYP2C6 (Homo sapiens, UniProt P10635). Described as above. It is filed as in vitro ADME. Conditions: single point method. Here is the method: as §1
Chain of CYP2C6 (P10635 whole entry): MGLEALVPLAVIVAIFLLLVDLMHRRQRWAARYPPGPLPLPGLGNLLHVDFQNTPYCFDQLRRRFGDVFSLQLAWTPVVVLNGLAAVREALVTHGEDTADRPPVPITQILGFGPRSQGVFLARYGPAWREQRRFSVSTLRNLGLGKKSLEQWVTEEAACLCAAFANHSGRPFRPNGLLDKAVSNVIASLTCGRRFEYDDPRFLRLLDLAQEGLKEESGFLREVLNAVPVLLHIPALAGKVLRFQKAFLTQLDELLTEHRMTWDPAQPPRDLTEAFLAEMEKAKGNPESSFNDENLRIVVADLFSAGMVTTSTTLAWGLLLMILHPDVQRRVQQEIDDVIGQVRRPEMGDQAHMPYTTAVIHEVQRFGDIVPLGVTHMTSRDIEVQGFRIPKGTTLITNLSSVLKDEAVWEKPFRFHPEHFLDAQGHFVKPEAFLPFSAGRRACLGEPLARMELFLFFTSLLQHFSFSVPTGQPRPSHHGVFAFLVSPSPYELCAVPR
In data set [1] the target is T2, MEK1 (Recombinant Human Protein) (Homo sapiens, UniProt Q02750).
T2 construct: purchased Invitrogen PV3093
T2 sequence (Q02750 whole entry): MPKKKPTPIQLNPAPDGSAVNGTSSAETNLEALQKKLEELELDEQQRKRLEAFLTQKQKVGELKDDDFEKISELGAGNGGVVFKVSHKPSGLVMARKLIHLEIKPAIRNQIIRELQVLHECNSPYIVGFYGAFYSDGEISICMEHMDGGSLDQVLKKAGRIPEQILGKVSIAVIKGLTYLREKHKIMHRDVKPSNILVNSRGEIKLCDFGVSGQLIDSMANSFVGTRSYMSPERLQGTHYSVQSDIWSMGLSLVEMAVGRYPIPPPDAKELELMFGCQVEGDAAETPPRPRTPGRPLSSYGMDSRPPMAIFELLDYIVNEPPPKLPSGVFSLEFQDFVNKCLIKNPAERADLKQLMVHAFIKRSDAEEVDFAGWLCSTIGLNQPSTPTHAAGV
As to the kind of experiment: MEK1 kinase inhibition assay (Z'-LYTE Kinase Assay Kit-Ser/Thr 03 Peptide). It is filed as biochemical. The conditions noted are these: 4 hours at 37° C, read-out: IC50 for inhibiting MEK kinase (MEK1). How it is done:
MEK1 kinase activity was tested in vitro by the following method.
MEK kinase used in the assay: MEK1 (Recombinant Human Protein, Invitrogen, Catalog No. PV3093).
Kit used in the assay: Z′-LYTE™ Kinase Assay Kit-Ser/Thr 03 Peptide (Invitrogen, Catalog No. PV3176).
The following in vitro assay was used to determine the activity of the compounds of the present invention for inhibiting the […] MEK kinase. The test compound was dissolved in dimethyl sulfoxide to the desired concentration. 1× Buffer A (Invitrogen, Catalog No. PV3189) was prepared, ATP was diluted with 1× Buffer A to obtain 400 μM ATP solution, appropriate amounts of Z′-LYTE™ Ser/Thr 03 Peptide (Invitrogen, Catalog No. PV3200), MEK kinase (MEK1) Enzymes and 1× Buffer A were mixed, and appropriate amounts of Z′-LYTE™ Ser/Thr 03 phosphoPeptide substrate (Invitrogen, Catalog No. PV3215) and 1× Buffer A were formulated into a mixture to be tested. The 4% DMSO solution of the test compound was prepared from 1× buffer and DMSO solution of the test compound. 2.5 μL DMSO solution of the test compound was added to a reaction well, and then 1× Buffer A, 2.5 μL of 400 μM ATP solution, 5 μL of enzyme and substrate mixture were added to become a 10 μL of reaction system. The reaction system was incubated for 4 hours at 37° C., and a mixture was prepared according to Reagent A:Buffer B=1:1024. 5 μL of a mixture of Reagent A (Invitrogen, Catalog No. PV3295) and Buffer B (Invitrogen, Catalog No. P3127) was added to a reaction well, the reaction system was incubated for 60 minutes at 25° C. The fluorescence was read by a NovoStar ELISA with excitation wavelength: 400 nm, and emission wavelength: 445 nm and 520 nm.
The activity of the compounds of the present invention: The above assay was used to determine the biochemical activity of the compounds of the present invention for inhibiting MEK kinase (MEK1).

Data set [2] can be described thus: Pharmacokinetics assay in SD rats, intragastric administration. Conditions: 10 mg/kg; for AUC / CL/F / half-life / MRT / Cmax: both sexes, Sprague-Dawley, rat, plasma, po; for AUC: read-out: Area Under Curve AUC; for CL/F: read-out: Clearance CL/F; for half-life: read-out: Half-Life T½ (converted); for MRT: read-out: Mean Residence Time MRT; for Cmax: read-out: Plasma Conc. Cmax. It is filed as in vivo, Sprague-Dawley (SD) rats. Here is the method:
Sprague-Dawley (SD) rats were used as test animals. The compounds of Example 1, Example 22, Example 29 and Example 31 were administered intragastrically to rats to determine the drug concentration in plasma at different time points by a LC/MS/MS method. The pharmacokinetic behavior of the compounds of the present invention was studied and evaluated in rats.
16 Healthy adult SD rats, half male and half female, purchased from SINO-BRITSH SIPPR/BK LAB. ANIMAL LTD., CO, Certificate No.: SCXK (Shanghai) 2008-0016, were divided into four groups, with 4 rats in each group.
The appropriate amounts of test compounds were weighed and mixed with 40 μL of tween 80 and 0.5% CMC-Na to prepare a 1 mg/mL suspension by an ultrasonic method.
After an overnight fast, 16 SD rats, half male and half female, were divided into 4 groups, with 4 rats in each group, and administered the test compounds intragastrically at a dose of 10 mg/kg, and an administration volume of 10 mL/kg.
Blood samples (0.1 mL) were taken from the orbital sinus before administration, and at 0.5 h, 1 h, 2 h, 4 h, 6 h, 8 h, 11 h, 24 h and 48 h after administration, stored in heparinized tubes, and centrifuged for 10 minutes at 3,500 rpm to separate blood plasma. The plasma samples were stored at −20° C. The rats were fed 2 hours after administration.
The concentration of the test compounds in rat plasma after intragastrically administering the test compounds was analyzed by a LC-MS/MS method. The linearity range of the method is 1.00-2000 ng/ml, and the lower limit of quantification is 1.00 ng/ml. Plasma samples were analyzed after protein precipitation.

For the compound `Cc1c(F)cccc1Oc1cc(=O)n(C)c(Nc2ccc(I)cc2F)c1C(N)=O` [Example 1, 4-(3-fluoro-2-methylphenoxy)-2-((2-fluoro-4-iodophenyl)amino)-1-methyl-6-oxo-1,6-dihydropyridine-3-carboxamide], the IC50 at CYP1A2 is over 10 µM. Further, the IC50 against CYP2C6 is over 10 µM. Moreover, in data set [1], the IC50 was found to be 0.0047 µM. In data set [2], the “Apparent Distribution Volume Vd” value was 163.863 ± 87.909 L/kg, the AUC is 642 ± 187 ng·h/mL, the CL/F was 280 ± 94.6 mL/min/kg and the half-life is 6.61 ± 1.66 h. In data set [2], the MRT worked out at 10.5 ± 2.41 h and the Cmax stood at 56.3 ± 15.6 ng/mL.

In the case of `CCS(=O)(=O)Nc1cccc(Oc2cc(=O)n(C)c(Nc3ccc(I)cc3F)c2C(N)=O)c1C` [Example 3, 4-(3-(ethylsulfonamido)-2-methylphenoxy)-2-((2-fluoro-4-iodophenyl)amino)-1-methyl-6-oxo-1,6-dihydropyridine-3-carboxamide], the IC50 was over 50 µM against CYP1A2, over 50 µM on CYP2C6 and 0.0041 µM in data set [1].

In turn, `Cc1cc(F)ccc1Oc1cc(=O)n(C)c(Nc2ccc(I)cc2F)c1C(N)=O` [Example 22, 4-(4-fluoro-2-methylphenoxy)-2-((2-fluoro-4-iodophenyl)amino)-1-methyl-6-oxo-1,6-dihydropyridine-3-carboxamide] showed an IC50 against CYP1A2 of over 10 µM. Further, the IC50 at CYP2C6 was over 10 µM. The IC50 in data set [1] stood at 0.0043 µM. In addition, in data set [2], the “Apparent Distribution Volume Vd” value was found to be 98.789 ± 42.165 L/kg, the AUC worked out at 1110 ± 746 ng·h/mL, the CL/F is 224 ± 151 mL/min/kg and the half-life was 7.18 ± 4.64 h. For the same compound, in data set [2], the MRT was found to be 11.3 ± 6.7 h and the Cmax came out at 108 ± 38 ng/mL.

`Cc1ncccc1Oc1cc(=O)n(C)c(Nc2ccc(I)cc2F)c1C(N)=O` [Example 29, 2-((2-fluoro-4-iodophenyl)amino)-1-methyl-4-((2-methylpyridin-3-yl)oxy)-6-oxo-1,6-dihydropyridine-3-carboxamide]: the IC50 at CYP1A2 is over 10 µM. The compound further yielded an IC50 against CYP2C6 of over 10 µM. The IC50 in data set [1] came to 0.0036 µM. In addition, in data set [2], the “Apparent Distribution Volume Vd” value was 11.319 ± 6.87 L/kg, the AUC is 6120 ± 3030 ng·h/mL, the CL/F stood at 32.9 ± 15.5 mL/min/kg and the half-life is 3.79 ± 0.76 h. Further, in data set [2], the MRT is 3.79 ± 0.5 h and the Cmax came to 1440 ± 396 ng/mL.

On to `Cc1ccc(Oc2cc(=O)n(C)c(Nc3ccc(I)cc3F)c2C(N)=O)cn1` [Example 31, 2-((2-fluoro-4-iodophenyl)amino)-1-methyl-4-((6-methylpyridin-3-yl)oxy)-6-oxo-1,6-dihydropyridine-3-carboxamide], for which, on CYP1A2, the IC50 is over 10 µM. Moreover, the IC50 against CYP2C6 was over 10 µM. The IC50 in data set [1] is 0.0039 µM. Further, in data set [2], the “Apparent Distribution Volume Vd” value stood at 4.483 ± 3.051 L/kg, the AUC was found to be 18100 ± 9970 ng·h/mL, the CL/F is 11.6 ± 5.9 mL/min/kg and the half-life is 4.12 ± 0.96 h. Further, in data set [2], the MRT worked out at 4.43 ± 0.96 h and the Cmax worked out at 3370 ± 756 ng/mL.

One may read the IC50 as the midpoint of a concentration-inhibition curve. The term AUC denotes the area under the concentration-time curve, a measure of exposure. For orientation: half-life means the time needed for the level to fall by half in the phase considered. As usually defined, the MRT is the average time that molecules of a dose stay in the body. The Cmax is the maximum level reached in the sampled fluid or tissue.
